Values of other authors in patent US12171169B2, “Pest repelling drip irrigation pipe” (RIVULIS PLASTRO LTD., priority 2017, dated 2024).

Columns and labels:
pests = settings: 1R-cis versus 1S-cis enantiomer
humans = settings: 1S-cis versus 1R-cis enantiomer

SMILES | effectiveness as a pesticide relative to 1S-cis-bifenthrin (pests) | toxicity to humans relative to 1R-cis-bifenthrin (humans)
Cc1c(COC(=O)[C@@H]2[C@H](/C=C(\Cl)C(F)(F)F)C2(C)C)cccc1-c1ccccc1 [1R-cis-bifenthrin, (2-methyl-[1,1′-biphenyl]-3-yl)methyl (1R,3R)-3-((Z)-2-chloro-3,3,3-trifluoroprop-1-en-1-yl)-2,2-dimethylcyclopropane-1-carboxylate] | more than 300 times | 
Cc1c(COC(=O)[C@H]2[C@@H](/C=C(\Cl)C(F)(F)F)C2(C)C)cccc1-c1ccccc1 [1S-cis-Bifenthrin, (2-methyl-[1,1′-biphenyl]-3-yl)methyl (1S,3S)-3-((Z)-2-chloro-3,3,3-trifluoroprop-1-en-1-yl)-2,2-dimethylcyclopropane-1-carboxylate] |  | 3-4 times
